Experiments:
Brugia malayi [1] = experiment: In vitro anti-filarial activity against male adult worms of Brugia. malayi at 100 uM concentration, using motility assay.; assay type: functional
Brugia malayi [2] = experiment: In vitro anti-filarial activity against female adult worms of Brugia. malayi at 100 uM concentration, using MTT reduction potential assay.; assay type: functional
Brugia malayi [3] = experiment: In vitro anti-filarial activity against female adult worms of Brugia. malayi at 100 uM concentration, using motility assay.; assay type: functional
Brugia malayi [4] = experiment: In vitro anti-filarial activity against male adult worms of Brugia. malayi at 100 uM concentration, using MTT reduction potential assay.; assay type: functional
Brugia malayi [5] = experiment: In vitro anti-filarial activity against female adult worms of Brugia. malayi at 100 uM concentration, using motility assay; assay type: functional
Brugia malayi [6] = experiment: In vitro anti-filarial activity against male adult worms of Brugia. malayi at 100 uM concentration, using motility assay; D = Dead worms; assay type: functional, organism-based
Brugia malayi [7] = experiment: In vitro anti-filarial activity of the compound against male adult worms of Brugia. malayi at 100 uM concentration, using MTT reduction potential assay.; assay type: functional
Brugia malayi [8] = experiment: In vitro anti-filarial activity against female adult worms of Brugia. malayi at 100 uM concentration, using motility assay; D = Dead worms; assay type: functional, organism-based
Brugia malayi [9] = experiment: In vitro anti-filarial activity against male adult worms of Brugia. malayi at 100 uM concentration, using motility assay D = Dead worms; assay type: functional, organism-based

In the case of `CCOC(=O)c1cnc2ccc(C(=O)O)cc2c1O`, the Mortality (Brugia malayi [1]) is reported as 3, the inhibition at 100 µM (Brugia malayi [2]) is reported as 0% and the Mortality (Brugia malayi [3]) is reported as 3. It also gave an inhibition at 100 µM (Brugia malayi [4]) of 0%.
Work on `O=C(O)c1ccc2ncc(C(=O)NC3CCCCC3)c(O)c2c1` yielded a Mortality (Brugia malayi [1]) of 3, an inhibition at 100 µM (Brugia malayi [2]) of 0% and an inhibition at 100 µM (Brugia malayi [4]) of 0%. The Mortality (Brugia malayi [5]) was 3.
`CCCCCCNC(=O)c1cnc2ccc(C(=O)O)cc2c1O` was tested, and the Mortality (Brugia malayi [6]) was “Dead worms”, the inhibition at 100 µM (Brugia malayi [2]) was 64.8% and the inhibition at 100 µM (Brugia malayi [7]) was 58.8%. For the same compound, the Mortality (Brugia malayi [8]) was “Dead worms”.
For `CCCCCCCCNC(=O)c1cnc2ccc(C(=O)O)cc2c1O`, the inhibition at 100 µM (Brugia malayi [2]) was 84.8%, the Mortality (Brugia malayi [9]) was “Dead worms” and the Mortality (Brugia malayi [8]) was “Dead worms”. The inhibition at 100 µM (Brugia malayi [4]) was 62.8%.
`O=C(O)c1ccc2ncc(C(=O)NC3CCCCCC3)c(O)c2c1` gave a Mortality (Brugia malayi [1]) of 3, an inhibition at 100 µM (Brugia malayi [2]) of 0% and a Mortality (Brugia malayi [3]) of 3. The inhibition at 100 µM (Brugia malayi [4]) was 0%.
